Measured values published in patent US7589097B2, “Triazol[4,5-d] pyramidine derivatives and their use as purinergic receptor antagonists” (Vernalis Research Limited, priority 2001, dated 2009).
pKi: −log10 of the molar value.

Columns and labels:
[1] = molecular target: human adenosine A2A receptors (Homo sapiens, UniProt P29274); test: Binding affinities at hA2A receptors, displacement of [3H]-CGS 21680
Excerpt: Adenosine Receptor Binding Binding Affinities at hA2A Receptors

human adenosine A2A receptors, sequence (P29274 whole entry): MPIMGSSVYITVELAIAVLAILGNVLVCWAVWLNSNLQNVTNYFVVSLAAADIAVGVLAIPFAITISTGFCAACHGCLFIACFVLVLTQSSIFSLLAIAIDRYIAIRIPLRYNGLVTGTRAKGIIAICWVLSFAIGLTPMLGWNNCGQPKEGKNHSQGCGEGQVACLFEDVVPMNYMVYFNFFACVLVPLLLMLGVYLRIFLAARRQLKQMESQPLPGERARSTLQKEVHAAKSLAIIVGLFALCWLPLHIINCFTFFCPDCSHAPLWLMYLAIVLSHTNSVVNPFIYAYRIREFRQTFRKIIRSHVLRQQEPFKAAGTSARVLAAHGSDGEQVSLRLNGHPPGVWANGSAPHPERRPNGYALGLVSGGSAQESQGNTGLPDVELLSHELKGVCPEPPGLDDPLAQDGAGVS

SMILES | pKi [1] | melting point
Nc1nc(-c2ccco2)c2nnn(Cc3ccccc3F)c2n1 [Example 3, 3-(2-Fluorobenzyl)-7-(2-furyl)-3H-[1,2,3]triazolo[4,5-d]pyrimidine-5-amine] | 8.52 | 
Nc1nc(-c2ccco2)c2nnn(Cc3cccc([N+](=O)[O-])c3)c2n1 [Example 4, 7-(2-furyl)-3-(3-nitrobenzyl)-3H-[1,2,3]triazolo[4,5-d]pyrimidine-5-amine] | 8.40 | 
Nc1cccc(Cn2nnc3c(-c4ccco4)nc(N)nc32)c1 [Example 5, 3-(3-Aminobenzyl)-7-(2-furyl)-3H-[1,2,3]triazolo[4,5-d]pyrimidine-5-amine] | 8.52 | 259.8 to 259.9 °C
Nc1nc(-c2ccco2)c2nnn(Cc3ccc(Cl)s3)c2n1 [Example 8, 3-(5-chloro-2-thienyl)methyl-7-(2-furyl)-3H-[1,2,3]triazolo[4,5-d]pyrimidine-5-amine] | 8.52 | 
COc1cccc(Cn2nnc3c(-c4ccco4)nc(N)nc32)c1 [Example 11, 7-(2-furyl)-3-(3-methoxybenzyl)-3H-[1,2,3]triazolo[4,5-d]pyrimidine-5-amine] | 8.70 | 
Nc1nc(-c2ccco2)c2nnn(Cc3ccccc3[N+](=O)[O-])c2n1 [Example 12, 7-(2-furyl)-3-(2-nitrobenzyl)-3H-[1,2,3]triazolo[4,5-d]pyrimidine-5-amine] | 8.15 | 
Nc1nc(-c2ccco2)c2nnn(Cc3ccccc3N)c2n1 [Example 13, 3-(2-aminobenzyl)-7-(2-furyl)-3H-[1,2,3]triazolo[4,5-d]pyrimidine-5-amine] | 8.70 | 
N#Cc1cccc(Cn2nnc3c(-c4ccco4)nc(N)nc32)c1 [Example 15, 3-(3-cyanobenzyl)-7-(2-furyl)-3H-[1,2,3]triazolo[4,5-d]pyrimidine-5-amine] | 8.40 | 
Nc1nc(-c2ccco2)c2nnn(Cc3c(F)cccc3F)c2n1 [Example 41, 3-(2,6-difluorobenzyl)-7-(2-furyl)-3H-[1,2,3]triazolo[4,5-d]pyrimidine-5-amine] | 8.70 | 213.8 to 213.9 °C
Nc1nc(-c2ccco2)c2nnn(Cc3cccc(F)c3F)c2n1 [Example 57, 3-(2,3-difluorobenzyl)-7-(2-furyl)-3H-[1,2,3]triazolo[4,5-d]pyrimidine-5-amine] | 8.70 | 188.8 to 188.9 °C
Nc1nc(-c2ccco2)c2nnn(Cc3cc([N+](=O)[O-])ccc3F)c2n1 [Example 78, 3-(2-fluoro-5-nitrobenzyl)-7-(2-furyl)-3H-[1,2,3]triazolo[4,5-d]pyrimidine-5-amine] | 8.52 | 
Cc1cccc(Cn2nnc3c(-c4ccco4)nc(N)nc32)c1[N+](=O)[O-] [Example 92, 7-(2-furyl)-3-(3-methyl-2-nitrobenzyl)-3H-[1,2,3]triazolo[4,5-d]pyrimidine-5-amine] | 8.70 | 267.9 to 268.5 °C
Nc1nc(-c2ccco2)c2nnn(Cc3cccc4cccnc34)c2n1 [Example 107, 7-(2-furyl)-3-(8-quinolinylmethyl)-3H-[1,2,3]triazolo[4,5-d]pyrimidine-5-amine] | 8.70 | 276.4 to 277.4 °C
Nc1nc(-c2ccco2)c2nnn(Cc3ccc(Cl)cc3N)c2n1 [Example 120, 3-(2-amino-4-chlorobenzyl)-7-(2-furyl)-3H-[1,2,3]triazolo[4,5-d]pyrimidine-5-amine] | 9.00 | 211.4 to 211.6 °C
Nc1nc(-c2ccco2)c2nnn(Cc3c(F)cc(O)cc3F)c2n1 [Example 149, 3-(2,6-difluoro-4-hydroxybenzyl)-7-(2-furyl)-3H-[1,2,3]triazolo[4,5-d]pyrimidine-5-amine] | 9.00 | 
COc1cc(F)c(Cn2nnc3c(-c4ccco4)nc(N)nc32)c(F)c1 [Example 156, 3-(2,6-Difluoro-4-methoxybenzyl)-7-(2-furyl)-3H-[1,2,3]triazolol[4,5-d]pyrimidine-5-amine] | 8.70 | 274.2 to 274.3 °C
Nc1nc(-c2ccco2)c2nnn(Cc3cc(I)ccc3F)c2n1 [Example 169, 3-(2-fluoro-5-iodobenzyl)-7-(2-furyl)-3H-[1,2,3]triazolo[4,5-d]pyrimidine-5-amine] | 8.70 | 
Nc1nc(-c2ccco2)c2nnn(Cc3ccc4ccccc4n3)c2n1 [Example 188, 7-(2-furyl)-3-(quinolin-2-ylmethyl)-3H-[1,2,3]triazolo[4,5-d]pyrimidine-5-amine] | 9.00 | 228.9 to 229.9 °C
C=Cc1cccc(Cn2nnc3c(-c4ccco4)nc(N)nc32)n1 [Example 202, 7-(2-furyl)-3-(6-vinyl-2-pyridylmethyl)-3H-[1,2,3]triazolo[4,5-d]pyrimidine-5-amine] | 9.00 | 210.5 to 211.6 °C
Nc1nc(-c2ccco2)c2nnn(Cc3ccc4c(c3)OCO4)c2n1 [Example 209, 7-(2-furyl)-3-(3,4-methylenedioxybenzyl)-3H-[1,2,3]triazolo[4,5-d]pyrimidine-5-amine] | 9.00 | > 250 °C (dec.)
Nc1nc(-c2ccco2)c2nnn(Cc3ccc(O)cc3)c2n1 [Example 221, 3-(4-Hydroxybenzyl)-7-(2-furyl)-3H-[1,2,3]triazolo[4,5-d]pyrimidine-5-amine] | 8.70 | 
CCOc1cccc(Cn2nnc3c(-c4ccc(C)o4)nc(N)nc32)n1 [Example 254, 3-(6-ethoxy-2-pyridylmethyl)-7-(5-methyl-2-furyl)-3H-[1,2,3]triazolo[4,5-d]pyrimidine-5-amine] |  | 190.8 to 190.9 °C
CC(c1ccc(C(F)(F)F)cc1)n1nnc2c(-c3ccco3)nc(N)nc21 (stereo not drawn) [Example 256, 7-(2-furyl)-3-(1-(4-frifluoromethylphenyl)ethyl)-3H-[1,2,3]triazolo[4,5-d]pyrimidine-5-amine] |  | 167.6 to 168.1 °C
Cc1cc(Cn2nnc3c(-c4ccco4)nc(N)nc32)cc(C)c1[N+](=O)[O-] [Example 259, 3-(3,5-dimethyl-4-nitrobenzyl)-7-(2-furyl)-3H-[1,2,3]triazolo[4,5-d]pyrimidine-5-amine] |  | 228.4 to 228.5 °C
CC(c1cccc(F)c1)n1nnc2c(-c3ccco3)nc(N)nc21 (stereo not drawn) [Example 260, 3-(1-(3-fluorophenyl)ethyl)-7-(2-furyl)-3H-[1,2,3]triazolo[4,5-d]pyrimidine-5-amine] |  | 150.3 to 151 °C
Cc1cc(Cn2nnc3c(-c4ccco4)nc(N)nc32)cc(C)c1N [Example 262, 3-(4-amino-3,5-dimethylbenzyl)-7-(2-furyl)-3H-[1,2,3]triazolo[4,5-d]pyrimidine-5-amine] |  | 250.1 to 261.3 °C
COCCc1cccc(Cn2nnc3c(-c4ccco4)nc(N)nc32)n1 [Example 264, 7-(2-furyl)-3-(6-(2-methoxyethyl)-2-pyridylmethyl)-3H-[1,2,3]triazolo[4,5-d]pyrimidine-5-amine] |  | 162 to 162.6 °C
Cc1ccc(-c2nc(N)nc3c2nnn3Cc2cccc([N+](=O)[O-])c2C)o1 [Example 267, 7-(5-methyl-2-furyl)-3-(2-methyl-3-nitrobenzyl)-3H-[1,2,3]triazolo[4,5-d]pyrimidine-5-amine] |  | 255.6 to 255.7 °C
Cc1ccc(-c2nc(N)nc3c2nnn3Cc2ccc([N+](=O)[O-])cc2)o1 [Example 268, 7-(5-methyl-2-furyl)-3-(4-nitrobenzyl)-3H-[1,2,3]triazolo[4,5-d]pyrimidine-5-amine] |  | 248.1 to 249 °C
